The values that follow come from patent publication US10300004B2, “Cosmetic composition for preventing or ameliorating skin damage caused by ultraviolet light” (CUSKIN CO., LTD, priority 2015, dated 2019).

One data set has as its system human epidermis. The conditions noted are these: Placzek M et al. 2005; cited from earlier work.
Data set [1] concerns HaCaT cells. The experiment in a line: MTT proliferation assay in HaCaT cells. The data set is classed as cell-based, Human. Conditions: dose-dependent; p<0.05; FIG. 4A. Here is the method: (§1) Human dermal fibroblasts (HDFs) and immortalized keratinocyte cell line (HaCaT) were cultured using DMEM (low, high glucose, Hyclone, Thermo Scientific, Logan, Utah, USA) supplemented with 10% FBS (Gibco, Invitrogen, Carlsbad, Calif., USA), 1% penicillin, and streptomycin (Gibco) at 37° C. with 5% CO2 in a humidified atmosphere (Kim W S et al., (2009) Journal of dermatological science 53: 96-102). Said cultures were performed by exchanging with fresh media every two days.
(§2) HDFs (3×10^4 cells/well) and HaCaT (4×10^4 cells/well) were seeded in 6-well plates. Cells were treated with various concentrations of MVE. Cells were then incubated for 48 hours and the MTT assay was performed. MTT solution (5 mg/ml in phosphate buffered saline) was added to each well at 1/20 of the media volume, incubated for 2 hours, and then supernatant was removed. Dimethyl sulfoxide (DMSO) was then added to dissolve formazan crystals, and the absorbance was measured at 595 nm using an ELISA reader (TECAN, Grodig, Austria).
For orientation: Tetrazolium assays rely on reduction of a dye to a coloured formazan, in cell work by metabolically active cells.

The subject of data set [2] is HaCaT cells. The experiment in a line: Mitochondrial ROS generation assay (Mito-Sox) in HaCaT cells. It is filed as cell-based, Human. The conditions noted are these: UVB, MVE 1000 nM, p<0.01, FIG. 5b. Here is the method: (§3) Cellular ROS generation was measured using 2′,7′-dichlorodihydrofluorescein diacetate (DCF-DA, Molecular Probes, Eugene, Oreg., USA), as described previously (Hye Kim J et al., Stem cells 33: 542-556). Similarly, mitochondrial ROS (mtROS) generation was measured using Mito-Sox (Molecular Probes). Cells were seeded in 6-well plates in 0.2% FBS and cultured overnight. […] Each well was imaged every 10 minutes for 40 minutes under standard incubation conditions using an IncuCyte™ ZOOM microscope placed inside an incubator. Image-based analysis of fluorescence intensity was carried out using IncuCyte™ software (Essen Bioscience, MI, USA).

The subject of data set [3] is HaCaT cells. As to the kind of experiment: MTT viability of HaCaT cells under UVB. The data set is classed as cell-based, Human. Conditions: p<0.01, FIG. 4B. Here is the method: as §1, §2
A further data set concerns collagen type I. As to the kind of experiment: RT-PCR of collagen mRNA in dermal fibroblasts. It is filed as cell-based, Human. As to the method:
(§4) Total RNA of HDFs and HaCaT was extracted with Trizol reagent followed by reverse transcription to cDNA. The following oligonucleotides were used as primers: collagen type I [5′-[…]-3′ (SEQ ID NO: 1) and 5′-[…]-3′ (SEQ ID NO: 2)], MMP-1 [5′-[…]-3′ (SEQ ID NO: 3) and 5′-[…]-3′ (SEQ ID NO: 4)], and control GAPDH [5′-[…]-3′ (SEQ ID NO: 5) and 5′-[…]-3′ (SEQ ID NO: 6)]. PCR was carried out in a total volume of 30 μl for PCR amplification of cDNA that was reverse-transcribed from the total RNA. After initial denaturation at 95° C. for 5 minutes, amplification was performed in 35 cycles for 30 seconds at 95° C., 20 seconds at 54° C., and 30 seconds at 72° C. This was followed by a final extension at 72° C. for another 10 minutes. GAPDH mRNA level was used for sample standardization.

Data set [4] has as its system Human dermal fibroblasts (HDFs). As to the kind of experiment: MTT proliferation assay in dermal fibroblasts. It is filed as cell-based. The conditions noted are these: 100~1000 nM; p<0.01; FIG. 1B. Here is the method: as §1, §2
For data set [5] the test system is unchanged. As to the kind of experiment: MTT viability of dermal fibroblasts under UVB irradiation. The data set is classed as cell-based. As to the method: as §1, §2
Data set [6] concerns matrix metalloproteinase 1 (MMP1). As to the kind of experiment: Western blot of MMP1 protein in fibroblasts. The data set is classed as cell-based, Human. Conditions: FIG. 2C. Here is the method: (§5) Cells (2×10^5 cells/ml) were seeded in a 60 mm dish and cultured to 80% confluence. Cells were treated with MVE. Cells were then lysed with 1×RIPA buffer (50 mM Tris-HCl, 0.15 M NaCl, 1 mM EDTA, 1% Triton-X100, pH 7.4, 1% SDS, 50 mM NaF, 1 mM Na3VO4, 5 mM Dithiothreitol, 1 mg/ml Leupeptin, and 1 mM phenylmethylsulfonyl fluoride). Sample protein (40 μg) was separated in 10-12% SDS-polyacrylamide gels by electrophoresis. Proteins were transferred to PVDF membranes and incubated with antibodies to collagen (1:1000 rabbit source, Santa Cruz Biotechnology, Santa Cruz, Calif., USA) and matrix metalloproteinase 1 (MMP1, 1:1000 rabbit source, Santa Cruz Biotechnology). Membranes were then washed and incubated with horseradish peroxidase-conjugated anti-rabbit IgG antibody (Santa Cruz Biotechnology). Blots were reacted with western reagent (ECL; Millipore Billerica, Ann Arbor, Mass., USA) and exposed to X-ray film.
(A western blot detects proteins with antibodies after separation by electrophoresis.)

The test system is the same in data set [7]. The experiment in a line: RT-PCR of MMP1 mRNA in dermal fibroblasts. The data set is classed as cell-based, Human. Here is the method: as §4
The test system of data set [8] is HaCaT cells. As to the kind of experiment: Cellular ROS generation assay (DCF-DA) in HaCaT cells. The data set is classed as cell-based, Human. Conditions: UVB, MVE 1000 nM, p<0.01, FIG. 5a. Here is the method: as §3
The next data set deals with collagen. As to the kind of experiment: Western blot of collagen protein in fibroblasts. The data set is classed as cell-based, Human. Conditions: FIG. 2C. Here is the method:
as §5

Another data set has as its system p53. The experiment in a line: p53 protein levels in HaCaT cells after UVB. It is filed as cell-based, Human. Conditions: FIG. 4C.
Data set [9] deals with fibroblasts. The experiment in a line: Mitochondrial ROS generation assay (Mito-Sox) in fibroblasts. The data set is classed as cell-based, Human. Conditions: UVB, MVE 1000 nM, p<0.01, FIG. 3b. Here is the method:
as §3

The subject of data set [10] is fibroblasts. As to the kind of experiment: Cellular ROS generation assay (DCF-DA) in fibroblasts. It is filed as cell-based, Human. Conditions: UVB, MVE 1000 nM, p<0.01, FIG. 3a. As to the method: as §3
The test system of another data set is HaCaT keratinocytes. Conditions: Shibata A et al. 2010; cited from earlier work.
[11] abbreviates: dermal fibroblasts, no UVB, FIG. 2A.

`Cc1c(C)c2c(c(C)c1O)CC[C@@](C)(CCC[C@H](C)CCC[C@H](C)CCCC(C)C)O2` [D-alpha-tocopherol]: the “UVB-induced DNA damage” value in the data set with human epidermis is recorded as “prevented”.
Take `Cc1c(C)c2c(c(C)c1O)CCC(C)(CC[P+](c1ccccc1)(c1ccccc1)c1ccccc1)O2.[Br-]` (centres unmarked) [MVE]: in the data set with HaCaT cells [1], the “proliferation of HaCaT cells” value is listed as “significantly increased”. Moreover, the “mitochondrial ROS production: signal intensity of mito-Sox” value in the data set on HaCaT cells [2] is reported as “reduced”. Moreover, the UVB-reduced cell viability result in the data set on HaCaT cells [3] is on record as “increased”. Besides, the “collagen mRNA expression” value in the data set with collagen type I (setting [11]) is “increased”. Further, the “mRNA level of collagen reduced by UVB irradiation” value in the data set with collagen type I (fibroblasts with UVB, FIG. 2B) was “attenuated”. Moreover, in [4], the fibroblast proliferation result is “increased”. In addition, in data set [5] (10~1000 nM, p<0.01, FIG. 1C), the “protection of fibroblasts from UVB” value was “protected”. In addition, the “fibroblast survival (UVB irradiation), low concentrations” value in data set [5] (UVB 200 mJ, 0.1 and 1 μM, concentration-dependent, FIG. 1A) is listed as “increased”. In addition, the “fibroblast survival (UVB irradiation), high concentrations” value in data set [5] (UVB 200 mJ, 10 to 100 μM, concentration-dependent, FIG. 1A) was “decreased”. Also, the “protein level of MMP1” value in data set [6] is recorded as “altered”. Moreover, the “MMP1 mRNA expression” value in data set [7] (setting [11]) is reported as “down-regulated”. For the same molecule, the “mRNA level of MMP1 increased by UVB” value in [7] (fibroblasts with UVB, FIG. 2B) is “reduced”. For the same molecule, the “cytosolic ROS level: fluorescent signal intensity of DCF-DA” value with HaCaT cells [8] and with fibroblasts [10] was “attenuated” in each case. Further, the “protein level of collagen” value in the data set with collagen is listed as “altered”. Further, in the data set with p53, the “UVB-induced p53 protein levels” value is on record as “reduced”. The “mitochondria ROS production: signal intensity of mito-Sox” value with fibroblasts [9] is “reduced”.
For the molecule `CC(C)=CCC/C(C)=C/CC/C(C)=C/CC[C@]1(C)CCc2cc(O)c(C)c(C)c2O1` [γ-tocotrienol], the “protection from UVB induced inflammation” value in the data set with HaCaT keratinocytes is “protected”.
Consider vitamin E [reference compound], for which, in data set [5] (UVB 200 mJ, 0.1 to 100 μM, FIG. 1A), the “survival of dermal fibroblasts from UVB irradiation” value is on record as “slightly increased”.
